In BindingDB's records for doi:10.1021/jm00109a029 (Research Biochemicals, 1991):

Assay: Compound was evaluated for inhibition of specifically bound [3H]- cocaine (2.7 nM) against Dopamine transporter in cynomolgus monkeys

For `COC(=O)C1C2CCC(C[C@@H]1c1ccc(F)cc1)N2` (stereo partly specified), the IC50 was 36 nM.
